Data as given in patent publication US20060035964A1, “Hypoglycemic agent, liver protecting agent and anticancer agent containing lignans originating in hongdoushan” (priority 2002, published 2006).
≈ marks a conversion by molar mass, not a printed value.

Experiments:
[1] = test system: human HT-1080 fibrosarcoma cells; assay: Antiproliferative activity against cultured cancer cells (MTT), HT-1080; format: cell-based; settings: for IC50: Homo sapiens, HT-1080, average of 4 wells
Experimental: (§1) Compounds of lignans and hongdoushan fractions were tested for their antiproliferative activity against human HT-1080 fibrosarcoma cells and murine colon 26-L5 carcinoma cells. Human HT-1080 fibrosarcoma cells were cultured in the EMEM medium supplemented with 10% FCS (heat-inactivated fetal calf serum) and 0.1% sodium bicarbonate, and 2 mM glutamine. On the other hand, murine colon 26-L5 carcinoma cells were cultured in the RPMI medium containing the same supplements as in the EMEM medium. Cell viability was determined by means of MTT(3-(4,5-dimethylthiazol-2-yl)-2,5-[…] bromide).
(§2) The cells were cultured in a 96-well plate, which was supplemented with a cell suspension medium solution. In this case, each well had approximately 2,000 cells in 100 μL. The cells grew exponentially during the cultivation.
(§3) Twenty four hours later, when the cells adhered to the plate, the medium solution was removed, and then the cells were treated with a test compound medium solution (100 μL) at various concentrations (100 μg/mL, 50 μg/mL, 10 μg/mL, 5 μg/mL, and 1 μg/mL). The cells were cultured at 37° C. under 5% CO2. In this case, the test compounds were first dissolved in DMSO and then diluted in the medium. The concentration of DMSO was adjusted to be finally below 0.25%.
(§4) Next, the medium solution was removed, and the dissolved MTT (100 μL) was added to the medium. After three-hour incubation of the cells, the amount of the formazan formed was measured spectrophotometrically at 550 nm with a plate reader HTS-7000 (manufactured by Perkin Elmer).

[2] = test system: murine colon 26-L5 carcinoma cells; assay: Antiproliferative activity against cultured cancer cells (MTT), colon 26-L5; format: cell-based; settings: for IC50: Mus musculus, average of 4 wells
Experimental: as §1, §2, §3, §4

[3] = DPPH free radical scavenging activity; settings: DPPH 60 μM ethanol solution, 30 minutes room temperature, absorbance 520 nm
Experimental: 500 μL of each test compound dissolved in ethanol or aqueous solution was mixed with 500 μL of DPPH (1,1-diphenyl 1-2-picrylhydrazyl) ethanol solution (concentration: 60 μM). The mixtures were left at room temperature for 30 minutes, and then their absorbance was measured at 520 nm. The measurements were carried out for each test compound at different concentrations.

[4] = test system: primary cultured mouse hepatocytes; assay: Inhibitory activity on TNF-α-induced cell death in primary cultured mouse hepatocytes (MTT); format: cell-based; settings: D-galactosamine 0.5 mM + TNF-α 100 ng/mL; compounds at 200, 100, 50 and 10 μM; 18 hours; compared with Control
Experimental: Hepatic parenchymal cells were separated from the lives of male mice of ddY strains by means of a collagenase recirculation method. The separated hepatic parenchymal cells were suspended in the William's E culture medium, which was supplemented with 10% calf blood serum, 100 IU/mL penicillin G, 100 µg/mL streptomycin, 100 μM dexamethasone, and 50 ng/mL insulin, and incubated in a 96-well plastic plate (1.5×10^4 cells/well). The culture medium was replaced with a fresh culture medium containing D-galactosamine (0.5 mM) and lignans after 2-hour pre-incubation. TNF-α (100 ng/mL) was added to each well 30 minutes later. The hepatocytes viability was assessed 18 hours later by means of MTT(3-(4,5-dimethylthiazol-2-yl)-2,5-[…] bromide) colorimetric reaction.
The vertical axis of the graph represents cell viability in percentage. The bar of Normal is cell viability in the TNF-α-untreated culture medium. The bar of Control is cell viability in the test compound-untreated culture medium.
TAX, HYL, SIL, and ITX were treated at 200 μM, 100 μM, 50 μM, and 10 μM in the culture medium. Cell viability of each item is shown in the bar graphs.

[5] = test system: D-GalN/LPS-induced hepatic damage in mice; assay: D-GalN/LPS-induced hepatic damage model; format: in vivo, mouse; settings: for GOT level in blood serum / GPT level in blood serum / TNF-α level in blood serum: ddY mice, subcutaneous 10 mg/kg and 50 mg/kg; for GOT level in blood serum / GPT level in blood serum: 12 h and 1 h before D-GalN/LPS, measured 8 hours after injection; for TNF-α level in blood serum: measured 90 minutes after D-GalN/LPS injection, ELISA; for Histopathological observation of hepatic cells (apoptosis): 8 hours after the injection of D-GalN/LPS, compared with control group
Experimental: Evaluation by D-galactosamine (hereinafter called “D-GalN”)/Lipopolysaccharide (hereinafter called “LPS”)-induced hepatic damage model (J. Wang et al., Biochem. Pharm., 39, 267 (1990), A. Wendel et al., Biochem. Pharm., 35, 2115 (1986))
Male mice of ddY strains (age: 6 weeks) kept fast for 12 hours, and then hepatic damage was induced in the mice by injecting D-GalN (700 mg/kg)/LPS (10 μg/kg) into their abdominal cavity. Test compounds were given subcutaneously to the mice 2 times: 12 hours and 1 hour before the injection of D-GalN/LPS. They were arranged into 2 groups which were given test compounds: a group in a dose of 50 mg/kg (weight of rat), and a group in a dose of 10 mg/kg (weight of rat). There were also a control group which was given normal saline solution and a group which was given silymarin, a known hepatoprotective agent, (subcutaneous administration in a dose of 100 mg/kg) for comparison of medicinal benefits.
Tumor necrosis factor alpha (hereinafter called “TNF-α”) level in the blood was measured 90 minutes after the injection of D-GalN/LPS. Furthermore, levels of GPT (glutamic-pyruvic transaminase) and GOT (glutamic oxaloacetic transaminase) in the blood were measured 8 hours after the injection.
TNF-α level was measured by means of the ELISA method using an anti-mouse TNF-α antibody (manufactured by Endogen, Inc., USA), and levels of GPT and GOT were measured by using a Transaminase CII-Test kit (manufactured by Wako Pure Chemical Industries, Ltd.).
The hepatic damage mechanism induced in this damage model is thought to have high correlativity with clinical results as a model of immunological hepatic damage outbreak because of a series of process such as activation of cells involved in immunity, infiltration into hepatic tissues, secretion of cytokine and autocoid such as leukotriene D4 and TNF-α, and apoptosis of hepatic cells.

[6] = test system: diabetic rats induced by injecting STZ; assay: Decrease activity in blood glucose level in STZ-induced diabetic rats; format: in vivo, rat; settings: STZ diabetic Wistar rats; for Reduction of blood glucose level: 10 mg/kg into abdominal cavity 5 times at 12 h intervals (positive control: tolbutamide 200 mg/kg + buformin 1 mg/kg)
Experimental: Activities of compounds of lignans and hongdoushan fractions in decreasing blood glucose level were assessed by using rats.
Blood serums were obtained after the blood cell separation of the whole blood samples collected from the rats. Measurement of the blood glucose level was carried out by using the blood serum, a Glucose CII-TEST WAKO (manufactured by Wako Pure Chemical Industries, Ltd.) as a reagent and a UV-160A (manufactured by Shimadzu Corporation) as an instrument for absorbance measurement.
Male rats of Wistar strains (age: 5-6 weeks, weight: 180-200 g) kept fast for 16 hours. Then, citrate buffer solution (pH 4.2) of streptozocin (hereinafter called “STZ”) was injected into the rats' abdominal cavity in a dose of 55 mg/kg (weight of rat). Blood samples were taken from the tail vein of the rats 5 days after the injection, to measure blood glucose level. Rats with blood glucose level higher than 250 mg/dL were considered to be diabetic and were used for the tests.
Compounds or fractions were injected into the abdominal cavity of the diabetic rats in a dose of 10 mg/kg (weight of rat) 5 times at intervals of 12 hours. Blood samples were taken from the tail veins of the rats to measure the blood glucose level. Averages and standard deviations of measured values were calculated for groups, each of which had 4 rats. The groups included a negative control group, which was given normal saline solution, and a positive control group of said diabetic rats, which were given a mixture of tolbutamide in a dose of 200 mg/kg (weight of rat) and buformin in a dose of 1 mg/kg (weight of rat) through their abdominal cavity.

| SMILES | IC50 [1] [µg/mL] | IC50 [2] [µg/mL] | ED50 DPPH free radical scavenging [3] [µg/mL] | Cell viability [4] | GOT level in blood serum [5] | GPT level in blood serum [5] | TNF-α level in blood serum [5] | Antiproliferative activity against HT-1080 (in words) [1] | Reduction of blood glucose level [6] [%] | Antiproliferative activity against Colon 26-L5 (in words) [2] | Histopathological observation of hepatic cells (apoptosis) [5] | Blood glucose level After administration ([6]; after 10 mg/kg into abdominal cavity 5 times at 12 h intervals (positive control: tolbutamide 200 mg/kg + buformin 1 mg/kg), mean ± SD) [mg/dL] | Blood glucose level Before administration ([6]; before administration, mean ± SD, 4 rats) [mg/dL] |
| --- | --- | --- | --- | --- | --- | --- | --- | --- | --- | --- | --- | --- | --- |
| O=C(O)/C=C/c1ccc(O)c(O)c1 [Caffeic Acid] | – | – | 5.41 (≈ 30 µM) | – | – | – | – | – | – | – | – | – | – |
| COc1cc([C@H]2OC[C@H]([C@@H](O)c3ccc(O)c(OC)c3)[C@@H]2CO)ccc1O [HYL, (7′R)-7′-Hydroxylariciresinol] | > 100 | > 100 | – | results similar to that of TAX | inhibit the increase | inhibit the increase | inhibit the increase | – | – | – | – | – | – |
| COc1cc(C[C@@H](CO)[C@H](CO)Cc2ccc(O)c(OC)c2)ccc1O [SIL, Secoisolariciresinol] | 5.9 (≈ 16.3 µM) | 60.2 (≈ 166 µM) | – | results similar to that of TAX | inhibit the increase | inhibit the increase | inhibit the increase | noticeable antiproliferative activity | 33.4 | – | less apoptosis corpuscles in the cells and less concentrated chromatins in the cell nucleuses | – | – |

Now from value to compound, other results behind:

| IC50 [1] [µg/mL] | IC50 [2] [µg/mL] | SMILES | ED50 DPPH free radical scavenging [3] [µg/mL] | Cell viability [4] | GOT level in blood serum [5] | GPT level in blood serum [5] | TNF-α level in blood serum [5] | Antiproliferative activity against HT-1080 (in words) [1] | Reduction of blood glucose level [6] [%] | Antiproliferative activity against Colon 26-L5 (in words) [2] | Histopathological observation of hepatic cells (apoptosis) [5] | Blood glucose level After administration ([6]; after 10 mg/kg into abdominal cavity 5 times at 12 h intervals (positive control: tolbutamide 200 mg/kg + buformin 1 mg/kg), mean ± SD) [mg/dL] | Blood glucose level Before administration ([6]; before administration, mean ± SD, 4 rats) [mg/dL] |
| --- | --- | --- | --- | --- | --- | --- | --- | --- | --- | --- | --- | --- | --- |
| 0.29 (≈ 2.23 µM) | 0.07 (≈ 0.538 µM) | O=c1[nH]cc(F)c(=O)[nH]1 [5-Fluorouracil, reference compound] | – | – | – | – | – | – | – | – | – | – | – |
| 43.8 (≈ 126 µM) | 36.5 (≈ 105 µM) | COc1cc2c(cc1O)[C@H](c1ccc(O)c(O)c1)[C@@H](CO)[C@H](CO)C2 [ITX, Isotaxiresinol] | – | results similar to that of TAX | inhibit the increase | inhibit the increase | inhibit the increase | showed antiproliferative activity | 23.6 | showed antiproliferative activity | less apoptosis corpuscles in the cells and less concentrated chromatins in the cell nucleuses | – | – |
| 62.2 (≈ 180 µM) | 35.2 (≈ 102 µM) | COc1cc(C[C@H]2CO[C@H](c3ccc(O)c(O)c3)[C@H]2CO)ccc1O [TAX, Taxiresinol] | – | increased cell viability considerably in a dose-dependent manner | inhibit the increase | inhibit the increase | inhibit the increase | showed antiproliferative activity | 20.9 | showed antiproliferative activity | – | 250.2 ± 35.5 | 316.1 ± 19.9 |
